Reference: patent US20070048356A1, “Antimicrobial treatment of nonwoven materials for infection control” (priority 2005, published 2007)

How the values were obtained:
Assay type in all cases: cell-based
[1] = system: A. Niger (ATCC 16404); experiment: Dynamic Shake Flask (based on ASTM E 2149-01) on treated nonwoven; conditions: Table 14, Spunbond
Description: (§1) The test organisms are grown in 25 mL appropriate broth medium for about 24±2 hours at 37±2° C. in a wrist action shaker. The bacterial culture is then transferred by placing about 100 μL aliquot in 25 mL of broth and grown again for about 24±2 hours at 37±2° C. The organisms are then centrifuged and washed three times with phosphate buffered saline (PBS). The organisms are then suspended in PBS to obtain an inoculum of approximately 1×10^8 CFU/mL.
(§2) The test articles and control swatches are exposed to an ultraviolet light source for about 5-10 minutes per side before testing to assure that the swatches are sanitized prior to inoculation with the bacteria. The test materials are brought into contact with a known population of test bacteria from the inoculum for a specified period of time. A sample is then plated at the end of the exposure time to enumerate the surviving bacteria. The log10 reduction form the control material and the original population is calculated using the following formula: Log10 Control*−Log10 CFU/swatch Test Article=Log10 Reduction
[…] This buffer solution contains a chemical to de-activate or “neutralize” the antimicrobial agent to (a) stop the active agent from killing the organisms after the designated time period and (b) to prevent artifacts that may arise from exposing the microorganisms to the antimicrobial in solution rather than solely on the substrate. Because each chemical used as an antimicrobial agent is a little different (ie: cationic, nonionic, metal, etc), a different neutralizer was likely added in each case to shut off the antimicrobial at the desired end point of the experiment. […] The neutralizer employed may be selected from a list that is commonly used in the field. These include, non-ionic degtergents, Bisulphate, lecithin, leethen broth, thiosulfate, thioglycolate, and pH buffers, Method similar to those described in American Society for Testing and Materials, Standard Practices for Evaluating Inactivators of Antimicrobial Agents Used in Disinfectant, Sanitizer, Antiseptic, or Preserved Products, Amer. Soc. Testing Mat. E 1054-91 (1991) can be used.

[2] = system: P. aeruginosa (ATCC 9027); experiment: as above
Description: as §1, §2
[…] This buffer solution contains a chemical to de-activate or “neutralize” the antimicrobial agent to (a) stop the active agent from killing the organisms after the designated time period and (b) to prevent artifacts that may arise from exposing the microorganisms to the antimicrobial in solution rather than solely on the substrate. Because each chemical used as an antimicrobial agent is a little different (ie: cationic, nonionic, metal, etc), a different neutralizer was likely added in each case to shut off the antimicrobial at the desired end point of the experiment. […] The neutralizer employed may be selected from a list that is commonly used in the field. […] Testing Mat.

[3] = system: Staphylococcus aureus (ATCC #27660); experiment: Rapid Germicidal Time Kill on treated gloves; conditions: for log reduction of organisms: nitrile gloves, versus applied organisms estimated from latex control
From the text: In another aspect, to assess the efficacy of how rapidly the applied antimicrobial agents kill, we employed a direct contact, rapid germicidal test, developed by Kimberly-Clark Corporation. This test better simulates real world working situations in which microbes are transferred from a substrate to glove through direct contacts of short duration. Also this test permits us to assess whether contact with the surface of the glove at one position will quickly kill microbes, whereas the solution-based testing of the ASTM E 2149-01 protocol tends to provide multiple opportunities to contact and kill the microbes, which less realistic in practice.
We applied an inoculum of a known amount of microbes to the antimicrobial-treated surface of a glove. After about 3-6 minutes, we assessed the number of microbes that remained on the surface of the treated glove. […] The concentration of organisms on the surface is given at an initial Zero Time point and at 3, 5, and 30 minute points.
To test the antimicrobial efficacy of a polyhexamethylene biguanide, we treated nitrile examination gloves according to ASTM protocol 04-123409-106 “Rapid Germicidal Time Kill.” In brief, about 50 μL of an overnight culture of Staphylococcus aureus (ATCC #27660, 5×10^8CFU/mL) was applied to the glove material. After a total contact time of about 6 minutes the glove fabric was placed into a neutralizing buffer. Surviving organisms were extracted and diluted in Letheen broth. Aliquots were spread plated on Tryptic Soy Agar plates. Plates were incubated for 48 hours at 35° C. Following incubation the surviving organisms were counted and the colony forming units (CFU) were recorded. The reduction (log10) in surviving organisms from test material versus control fabric was calculated: Log10 CFU/swatch Control−Log10 CFU/swatch Test Article=Log10 Reduction.

[4] = system: S. aureus; experiment: Zone of inhibition test to measure leaching; conditions: AATCC 147 and ASTM E 2149-01 protocols
Description: First, according to the American Association of Textile Chemists and Colorists (AATCC)-147 test protocol, in a dry-leaching test, the antimicrobial treated material is placed in an agar plate seeded with a known amount of organism population on the plate surface. The plate is then incubated for about 18-24 hours at about 35° C. or 37° C.±2° C. Afterwards, the agar plate is assessed. Any leaching of the antimicrobial from the treated material would result in a zone of inhibited microbial growth. […] The piece of material was allowed to sit for 24 hours in solution and then the supernatant of the solution was extracted. […] About 100 micro liters (μL) of supernatant is added to a 8 mm well cut into a seeded agar plate and allow to dry. […] In summary, these protocols are performed by incubating an inoculated plate containing either the actual treated material or a solution that has been exposed to the treated material. This plate is then analyzed for zones of inhibition of organism growth to detect if the antimicrobial has leached off of the material or into the solution.

[5] = system: C. Albicans (ATCC 10231); experiment: Dynamic Shake Flask (based on ASTM E 2149-01) on treated nonwoven; conditions: Table 15, SMS
[6] = Table 25, nitrile glove samples, Inoculum: 8.08

Substance: Polyhexamethylene biguanide [PHMB]
- Dynamic Shake Flask Log10 Reduction ([1]; contact time 1 min): 4.00 Log10
- Dynamic Shake Flask Log10 Reduction ([1]; contact time 5 min): 4.00 Log10
- Dynamic Shake Flask Log10 Reduction ([1]; contact time 15 min): 4.00 Log10
- Dynamic Shake Flask Log10 Reduction ([2]; Table 13, Meltblown, contact time 1 min): 4 Log10
- Dynamic Shake Flask Log10 Reduction ([2]; Table 13, Meltblown, contact time 5 min): 4 Log10
- Dynamic Shake Flask Log10 Reduction ([2]; Table 13, Meltblown, contact time 15 min): 4 Log10
- Dynamic Shake Flask Log10 Reduction ([2]; Table 13, SMS, contact time 1 min): 4 Log10
- Dynamic Shake Flask Log10 Reduction ([2]; Table 13, SMS, contact time 5 min): 4 Log10
- Dynamic Shake Flask Log10 Reduction ([2]; Table 13, SMS, contact time 15 min): 4 Log10
- Dynamic Shake Flask Log10 Reduction ([2]; Table 13, Spunbond, contact time 1 min): 4 Log10
- Dynamic Shake Flask Log10 Reduction ([2]; Table 13, Spunbond, contact time 5 min): 4 Log10
- Dynamic Shake Flask Log10 Reduction ([2]; Table 13, Spunbond, contact time 15 min): 4 Log10
- Dynamic Shake Flask Log10 Reduction ([2]; Table 18, Spunbond substrate, contact time 1 min): 0.07 Log10
- Dynamic Shake Flask Log10 Reduction ([2]; Table 18, Spunbond substrate, contact time 5 min): 0.12 Log10
- Dynamic Shake Flask Log10 Reduction ([2]; Table 18, Spunbond substrate, contact time 15 min): 0.34 Log10
- Dynamic Shake Flask Log10 Reduction ([2]; Table 20, SMS substrate, contact time 1 min): 0.07 Log10
- Dynamic Shake Flask Log10 Reduction ([2]; Table 20, SMS substrate, contact time 5 min): 0.12 Log10
- Dynamic Shake Flask Log10 Reduction ([2]; Table 20, SMS substrate, contact time 15 min): 0.34 Log10
- Result (Log10 Reduction, test material versus control) ([3]; Table 23, microtextured nitrile glove, total contact time about 6 minutes): >4.7 log10
- Result (Log10 Reduction versus PFE control) ([3]; Table 24, latex glove samples, total contact time about 6 minutes): >5.83 log10
- Result (log reduction of test glove compared to control glove) [3, 6]: >1.85 log
- Result (log reduction of test glove compared to control glove), class [3, 6]: NR (No Reduction = less than 0.5 log reduction of test glove compared to control glove.)
- log reduction of Staphylococcus aureus ATCC 27660 ([3]; microtextured nitrile glove, machine applied at 0.03 g/glove): greater than four
- log reduction of organisms ([3]; hand sprayed with no heat): greater than one
- log reduction of organisms ([3]; machine sprayed under heated conditions): greater than 5 log
- zones of inhibition / leaching from the treated substrate [4]: does not leach
- Dynamic Shake Flask Log10 Reduction ([5]; contact time 1 min): 1.28 Log10
- Dynamic Shake Flask Log10 Reduction ([5]; contact time 5 min): 2.38 Log10
- Dynamic Shake Flask Log10 Reduction ([5]; contact time 15 min): 3.48 Log10
